“And” between values parts separate entries of the source, which are not always exact repeats. Equal entries are not always repeated. ± gives the expanded uncertainty stated by the source.
Settings: Liquid; Temperature-Programmed Gas Chromatography

Row | SMILES | Normal boiling temperature
1 | CCOP(=O)(OCC)OCC [ethyl phosphate] | 215.89 ± 22 °C and 216.34 ± 22 °C
2 | CCCC(C)OP(=O)(OC(C)CCC)OC(C)CCC (stereo not drawn) [tri-sec-amyl phosphate] | 282.02 ± 28 °C and 282.74 ± 28 °C
3 | CCC(C)OP(=O)(OC(C)CC)OC(C)CC (stereo not drawn) [tri-sec-butyl phosphate] | 260.80 ± 26 °C and 261.06 ± 26 °C
4 | CCCCCCOP(=O)(OCCCCCC)OCCCCCC [trihexyl phosphate] | 366.12 ± 37 °C and 365.02 ± 36 °C
5 | CC(C)COP(=O)(OCC(C)C)OCC(C)C [triisobutyl phosphate] | 264.67 ± 26 °C and 265.70 ± 27 °C
6 | CC(C)CCOP(=O)(OCCC(C)C)OCCC(C)C [triisopentyl phosphate] | 302.29 ± 30 °C and 302.37 ± 30 °C
7 | COP(=O)(OC)OC [trimethyl orthophosphate] | 195.06 ± 20 °C and 194.97 ± 20 °C
8 | CCCCCOP(=O)(OCCCCC)OCCCCC [tripentyl phosphate] | 323.21 ± 32 °C and 326.62 ± 33 °C
